Results published in PMC6009944, “Synthesis, antitumour activities and molecular docking of thiocarboxylic acid ester-based NSAID scaffolds: COX-2 inhibition and mechanistic studies” (Journal of Enzyme Inhibition and Medicinal Chemistry, 2018).
Read-outs that look alike come from different tables or passages of the source.

Key:
[1] = system: Caco-2; assay: MTT antitumor assay, Caco-2; conditions: Homo sapiens, Caco-2, read-out: IC50 (μM) Caco-2
Protocol: (§2) The evaluation of the antitumour activity was performed using tetrazolium salt MTT (3–(4,5-dimethyl-2-thiazolyl)-2,5-diphenyl-2H-tetrazolium bromide) assay as reported[47–50].

[2] = system: MCF-7; assay: MTT antitumor assay, MCF-7
Protocol: as §2

[3] = system: HCT-116; assay: MTT antitumor assay, HCT-116
Protocol: as §2

[4] = system: HepG2; assay: MTT antitumor assay, HepG2; conditions: Homo sapiens, HepG2, read-out: IC50 (μM) HepG2
Protocol: as §2

[5] = biological target: T1, HER4 (Homo sapiens, UniProt Q15303); assay: Kinase inhibition assay (Kinase-Glo Plus), HER4; type: biochemical; conditions: read-out: % inhibition of 10 μM HER4; 10 μM compound
T1 construct: purchased BPS Bioscience
Protocol: (§1) Luminescence signal was measured using a BioTek Synergy 2 microplate reader.

[6] = biological target: T2, COX-2 (Ovis aries, UniProt P79208); assay: In vitro COX-2 enzyme inhibition assay (colorimetric kit); conditions: for SI, selectivity index (COX-1 IC50/COX-2 IC50): COX-2 selectivity over COX-1
T2 sequence (P79208 17-603): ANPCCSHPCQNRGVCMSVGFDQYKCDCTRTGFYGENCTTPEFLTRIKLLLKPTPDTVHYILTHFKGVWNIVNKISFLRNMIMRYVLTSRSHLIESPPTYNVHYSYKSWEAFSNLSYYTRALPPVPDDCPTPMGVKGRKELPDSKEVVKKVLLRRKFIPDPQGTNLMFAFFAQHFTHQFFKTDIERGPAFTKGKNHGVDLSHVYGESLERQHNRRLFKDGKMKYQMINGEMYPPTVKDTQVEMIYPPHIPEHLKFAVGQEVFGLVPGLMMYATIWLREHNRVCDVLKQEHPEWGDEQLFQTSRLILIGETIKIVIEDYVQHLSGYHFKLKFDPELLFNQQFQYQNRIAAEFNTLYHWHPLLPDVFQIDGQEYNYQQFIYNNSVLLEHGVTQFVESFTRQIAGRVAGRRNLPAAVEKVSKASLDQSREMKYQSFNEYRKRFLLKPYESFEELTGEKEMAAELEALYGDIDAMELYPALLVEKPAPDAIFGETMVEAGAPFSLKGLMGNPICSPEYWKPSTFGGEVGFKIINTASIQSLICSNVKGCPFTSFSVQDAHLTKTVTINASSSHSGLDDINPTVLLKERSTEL
Protocol: (§3) IC50 (represented in μM) (The half-maximal inhibitor concentration) values were determined[56–59], and the SI values were calculated[51]^,[52]^,[55] as IC50 (COX-1)/IC50 (COX-2).

[7] = biological target: T3, cSrc (Homo sapiens, UniProt P12931); assay: Kinase inhibition assay (Kinase-Glo Plus), cSrc; type: biochemical; conditions: for inhibition at 10 µM: read-out: % inhibition, 10 μM compound
T3 construct: purchased BPS Bioscience
Protocol: as §1

[8] = biological target: T4, COX-1 (Ovis aries, UniProt P05979); assay: In vitro COX-1 enzyme inhibition assay (colorimetric kit)
T4 sequence (P05979 25-600): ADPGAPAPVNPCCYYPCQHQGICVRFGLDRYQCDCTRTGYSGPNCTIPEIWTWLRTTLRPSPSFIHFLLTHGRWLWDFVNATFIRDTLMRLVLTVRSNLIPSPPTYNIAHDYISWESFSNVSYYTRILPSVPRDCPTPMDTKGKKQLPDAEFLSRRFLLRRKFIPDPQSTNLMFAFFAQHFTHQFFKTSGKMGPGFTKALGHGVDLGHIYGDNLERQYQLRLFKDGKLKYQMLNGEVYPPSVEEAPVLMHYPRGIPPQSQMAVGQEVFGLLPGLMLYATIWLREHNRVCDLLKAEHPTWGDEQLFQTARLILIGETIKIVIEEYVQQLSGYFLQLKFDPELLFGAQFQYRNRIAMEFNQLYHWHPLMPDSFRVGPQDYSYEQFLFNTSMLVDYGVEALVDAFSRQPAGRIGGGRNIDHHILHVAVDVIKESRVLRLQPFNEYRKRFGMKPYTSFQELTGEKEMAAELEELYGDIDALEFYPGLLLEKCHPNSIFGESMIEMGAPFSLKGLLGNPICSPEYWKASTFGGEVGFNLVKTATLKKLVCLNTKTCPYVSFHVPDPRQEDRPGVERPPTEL
Protocol: as §3

[9] = biological target: T5, EGFR (Homo sapiens, UniProt P00533); assay: Kinase inhibition assay (Kinase-Glo Plus), EGFR; type: biochemical; conditions: read-out: % inhibition of 10 μM EGFR; 10 μM compound
T5 construct: purchased BPS Bioscience
Protocol: as §1

[10] = biological target: T6, HER2 (Homo sapiens, UniProt P04626); assay: Kinase inhibition assay (Kinase-Glo Plus), HER2; type: biochemical; conditions: read-out: % inhibition of 10 μM HER2; 10 μM compound
T6 construct: purchased BPS Bioscience
Protocol: as §1

[11] = Homo sapiens, MCF7, read-out: IC50 (μM) MCF-7, human breast adenocarcinoma cell line, MTT, mean ± SD, n = 3
[12] = Homo sapiens, HCT-116, read-out: IC50 (μM) HCT-116, human colon cancer cell line, MTT, mean ± SD, n = 3
[13] = read-out: IC50 (μM) MCF-7, human breast adenocarcinoma cell line, MTT, mean ± SD, n = 3

T6 sequence (P04626 23-1255): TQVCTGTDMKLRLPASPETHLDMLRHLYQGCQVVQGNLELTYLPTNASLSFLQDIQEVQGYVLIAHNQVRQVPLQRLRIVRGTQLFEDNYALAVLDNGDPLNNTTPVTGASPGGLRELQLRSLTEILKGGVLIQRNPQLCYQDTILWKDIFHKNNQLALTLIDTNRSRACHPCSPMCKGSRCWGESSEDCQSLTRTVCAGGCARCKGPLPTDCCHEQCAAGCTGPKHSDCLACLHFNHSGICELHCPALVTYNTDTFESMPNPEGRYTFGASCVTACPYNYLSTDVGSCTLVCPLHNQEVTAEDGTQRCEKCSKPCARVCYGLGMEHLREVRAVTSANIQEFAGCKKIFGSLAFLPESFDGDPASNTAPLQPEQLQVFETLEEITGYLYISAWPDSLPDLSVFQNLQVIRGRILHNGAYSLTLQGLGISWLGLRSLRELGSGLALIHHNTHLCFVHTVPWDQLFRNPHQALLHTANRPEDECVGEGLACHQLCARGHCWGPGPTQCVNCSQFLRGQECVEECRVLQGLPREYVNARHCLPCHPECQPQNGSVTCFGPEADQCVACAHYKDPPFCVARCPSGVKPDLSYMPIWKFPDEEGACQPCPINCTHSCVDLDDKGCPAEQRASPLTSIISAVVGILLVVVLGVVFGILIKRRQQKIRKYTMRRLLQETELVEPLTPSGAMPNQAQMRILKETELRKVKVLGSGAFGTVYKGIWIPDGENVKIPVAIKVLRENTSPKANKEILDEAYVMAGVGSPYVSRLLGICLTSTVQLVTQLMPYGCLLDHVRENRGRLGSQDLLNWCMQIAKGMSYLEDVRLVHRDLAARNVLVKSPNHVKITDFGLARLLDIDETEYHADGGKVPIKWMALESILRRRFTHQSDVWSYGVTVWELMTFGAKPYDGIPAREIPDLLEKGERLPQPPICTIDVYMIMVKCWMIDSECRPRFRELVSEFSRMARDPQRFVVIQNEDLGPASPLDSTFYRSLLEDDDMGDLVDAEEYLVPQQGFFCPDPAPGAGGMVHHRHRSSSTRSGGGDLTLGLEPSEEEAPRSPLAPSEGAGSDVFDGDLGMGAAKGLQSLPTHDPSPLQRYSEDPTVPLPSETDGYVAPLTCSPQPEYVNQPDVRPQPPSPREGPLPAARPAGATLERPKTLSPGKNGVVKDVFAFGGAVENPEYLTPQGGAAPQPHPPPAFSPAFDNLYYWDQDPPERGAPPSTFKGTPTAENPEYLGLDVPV
T3 sequence (P12931 whole entry): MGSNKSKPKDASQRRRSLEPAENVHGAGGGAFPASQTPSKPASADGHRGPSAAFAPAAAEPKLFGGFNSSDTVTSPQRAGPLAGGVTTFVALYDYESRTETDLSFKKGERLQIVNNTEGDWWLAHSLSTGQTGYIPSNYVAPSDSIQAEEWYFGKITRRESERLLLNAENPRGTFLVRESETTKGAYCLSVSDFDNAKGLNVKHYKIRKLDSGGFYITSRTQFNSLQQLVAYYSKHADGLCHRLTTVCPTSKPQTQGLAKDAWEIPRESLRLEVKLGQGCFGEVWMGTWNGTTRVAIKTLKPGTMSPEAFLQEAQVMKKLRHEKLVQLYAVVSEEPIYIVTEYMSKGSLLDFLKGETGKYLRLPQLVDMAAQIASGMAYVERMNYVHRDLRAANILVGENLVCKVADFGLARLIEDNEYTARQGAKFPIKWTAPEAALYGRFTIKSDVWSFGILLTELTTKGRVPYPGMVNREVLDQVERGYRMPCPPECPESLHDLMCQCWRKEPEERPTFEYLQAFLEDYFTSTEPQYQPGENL
T1 sequence (Q15303 26-1308): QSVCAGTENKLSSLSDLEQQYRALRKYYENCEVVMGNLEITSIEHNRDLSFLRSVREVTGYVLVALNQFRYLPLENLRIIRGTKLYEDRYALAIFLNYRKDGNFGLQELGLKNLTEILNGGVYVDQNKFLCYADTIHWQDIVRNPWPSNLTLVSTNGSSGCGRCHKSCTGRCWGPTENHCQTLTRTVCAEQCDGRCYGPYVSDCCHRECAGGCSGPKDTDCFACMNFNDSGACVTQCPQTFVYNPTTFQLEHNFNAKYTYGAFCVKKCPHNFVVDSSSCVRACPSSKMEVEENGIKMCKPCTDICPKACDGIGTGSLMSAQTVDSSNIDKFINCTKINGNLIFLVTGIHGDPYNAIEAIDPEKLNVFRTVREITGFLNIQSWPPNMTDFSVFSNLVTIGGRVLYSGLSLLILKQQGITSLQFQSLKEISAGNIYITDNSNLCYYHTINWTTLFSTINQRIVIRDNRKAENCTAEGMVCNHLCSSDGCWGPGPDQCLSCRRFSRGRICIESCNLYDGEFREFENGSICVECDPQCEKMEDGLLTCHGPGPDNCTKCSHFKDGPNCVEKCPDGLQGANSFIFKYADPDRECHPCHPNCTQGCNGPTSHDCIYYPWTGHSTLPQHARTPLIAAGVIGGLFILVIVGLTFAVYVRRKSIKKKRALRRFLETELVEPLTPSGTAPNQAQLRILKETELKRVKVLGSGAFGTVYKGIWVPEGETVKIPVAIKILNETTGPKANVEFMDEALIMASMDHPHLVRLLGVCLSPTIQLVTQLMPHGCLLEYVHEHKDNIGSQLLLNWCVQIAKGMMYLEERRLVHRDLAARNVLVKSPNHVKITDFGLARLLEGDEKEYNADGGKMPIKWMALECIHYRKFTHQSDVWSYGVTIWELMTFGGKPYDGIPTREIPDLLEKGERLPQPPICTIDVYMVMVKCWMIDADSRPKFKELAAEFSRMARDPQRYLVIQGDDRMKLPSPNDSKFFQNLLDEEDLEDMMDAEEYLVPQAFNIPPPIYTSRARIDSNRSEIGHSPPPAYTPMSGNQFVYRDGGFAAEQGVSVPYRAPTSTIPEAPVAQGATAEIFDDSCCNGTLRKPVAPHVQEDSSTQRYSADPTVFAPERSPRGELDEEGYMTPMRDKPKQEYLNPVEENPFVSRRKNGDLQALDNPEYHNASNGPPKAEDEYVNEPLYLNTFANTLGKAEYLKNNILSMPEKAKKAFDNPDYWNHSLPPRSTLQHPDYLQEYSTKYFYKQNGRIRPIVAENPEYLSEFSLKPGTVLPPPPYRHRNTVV
T5 sequence (P00533 25-1210): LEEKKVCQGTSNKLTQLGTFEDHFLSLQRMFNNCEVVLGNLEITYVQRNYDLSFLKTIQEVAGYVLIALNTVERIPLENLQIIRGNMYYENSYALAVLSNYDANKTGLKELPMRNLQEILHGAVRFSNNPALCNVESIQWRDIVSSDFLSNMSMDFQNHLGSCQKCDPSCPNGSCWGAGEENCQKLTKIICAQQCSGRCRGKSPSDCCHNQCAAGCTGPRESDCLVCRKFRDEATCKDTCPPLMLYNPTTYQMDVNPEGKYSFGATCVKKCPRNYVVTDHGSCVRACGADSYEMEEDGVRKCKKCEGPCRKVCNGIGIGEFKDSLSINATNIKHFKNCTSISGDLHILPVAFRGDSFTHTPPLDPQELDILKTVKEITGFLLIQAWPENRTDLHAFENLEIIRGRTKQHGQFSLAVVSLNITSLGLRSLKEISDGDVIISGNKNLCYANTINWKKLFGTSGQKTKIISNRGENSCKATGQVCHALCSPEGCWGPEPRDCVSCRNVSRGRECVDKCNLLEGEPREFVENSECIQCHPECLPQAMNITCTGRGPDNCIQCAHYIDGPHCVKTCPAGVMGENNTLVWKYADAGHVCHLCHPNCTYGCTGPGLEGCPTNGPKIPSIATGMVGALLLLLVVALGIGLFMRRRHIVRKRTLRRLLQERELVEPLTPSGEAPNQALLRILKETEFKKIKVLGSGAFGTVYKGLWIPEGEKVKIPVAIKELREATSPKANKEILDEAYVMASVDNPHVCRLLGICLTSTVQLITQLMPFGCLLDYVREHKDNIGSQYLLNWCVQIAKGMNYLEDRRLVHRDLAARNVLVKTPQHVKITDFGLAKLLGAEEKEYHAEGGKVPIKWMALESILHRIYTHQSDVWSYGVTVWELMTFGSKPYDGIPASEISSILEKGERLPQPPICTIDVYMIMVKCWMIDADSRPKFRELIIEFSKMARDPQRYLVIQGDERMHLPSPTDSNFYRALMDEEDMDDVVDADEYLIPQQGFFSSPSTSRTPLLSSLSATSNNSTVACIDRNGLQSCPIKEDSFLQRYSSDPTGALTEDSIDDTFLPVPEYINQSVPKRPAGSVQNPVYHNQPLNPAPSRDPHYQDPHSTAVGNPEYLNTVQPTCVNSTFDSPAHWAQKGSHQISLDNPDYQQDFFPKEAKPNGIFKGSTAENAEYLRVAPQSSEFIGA

IC50 [1] | melting point | IC50 [2, 11] | IC50 [3, 12] | IC50 [4] | inhibition at 10 µM [5] | IC50 [6] | SI, selectivity index (COX-1 IC50/COX-2 IC50) [6] | inhibition at 10 µM [7] | IC50 [8] | inhibition at 10 µM [9] | inhibition at 10 µM [10] | IC50 [2, 13] | IC50 ([3]; read-out: IC50 (μM) HCT-116, human colon cancer cell line, MTT, mean ± SD, n = 3) | SMILES | IC50 ([2]; Homo sapiens, MCF7, read-out: IC50 (μM) MCF-7) | IC50 ([3]; Homo sapiens, HCT-116, read-out: IC50 (μM) HCT-116) | inhibition at 1 µM ([7]; read-out: % inhibition cSrc)
80.2 ± 4.5 µM | 72 to 73 °C | 73.7 ± 3.92 µM | 85.4 ± 4.57 µM | 71.1 ± 4.11 µM |  |  |  |  |  |  |  |  |  | CC(=O)Oc1ccccc1C(=O)Sc1ccccc1 [4a, 2-[(Phenylthio)carbonyl]phenyl acetate] |  |  | 
18.1 ± 1.73 µM | 133 to 135 °C | 9.65 ± 0.96 µM | 14.6 ± 1.24 µM | 7.86 ± 0.39 µM | 4% | 0.22 ± 0.019 µM | >227.3 | 1% | > 50 µM | 0% | 0% |  |  | COc1ccc2c(c1)c(CC(=O)Sc1ccccc1)c(C)n2C(=O)c1ccc(Cl)cc1 [7a, S-phenyl-2–(1-(4-chlorobenzoyl)-5-methoxy-2-methyl-1H-indol-3-yl)ethanethioate] |  |  | 
> 100 µM | 88 to 90 °C |  | 91.2 ± 4.96 µM | > 100 µM |  |  |  |  |  |  |  | 95.3 ± 4.96 µM |  | O=C(Cc1ccccc1Nc1c(Cl)cccc1Cl)SC1CCCCC1 [6b, S-cyclohexyl-2–(2-((2,6-dichlorophenyl)amino)phenyl)ethanethioate] |  |  | 
15.4 ± 1.37 µM |  | 8.62 ± 0.72 µM | 9.73 ± 0.85 µM | 7.35 ± 0.34 µM | 10% | 0.2 ± 0.016 µM | >250.0 | 4% | > 50 µM | 6% | 0% |  |  | CC1=C(CC(=O)Sc2ccccc2)c2cc(F)ccc2C1=Cc1ccc([S+](C)[O-])cc1 (stereo not drawn) [8a, S-phenyl-2–(5-fluoro-2-methyl-1–(4-(methylsulfinyl)benzylidene)-1H-inden-3-yl)ethanethioate] |  |  | 
94.8 ± 4.92 µM |  | 80.4 ± 4.58 µM | 89.6 ± 4.68 µM | 85.1 ± 4.53 µM |  |  |  |  |  |  |  |  |  | CC(C)Cc1ccc(C(C)C(=O)Sc2ccccc2)cc1 (stereo not drawn) [1a, S-phenyl-2–(4-isobutylphenyl)propanethioate] |  |  | 
63.8 ± 3.58 µM | 115 to 117 °C | 42.6 ± 2.67 µM | 51.2 ± 3.71 µM | 36.8 ± 2.7 µM |  |  |  |  |  |  |  |  |  | COc1ccc2cc(C(C)C(=O)Sc3ccccc3)ccc2c1 [5a, S-phenyl-(S)-2–(6-methoxynaphthalen-2-yl)propanethioate] |  |  | 
7.7 ± 0.57 µM |  | 7.1 ± 0.49 µM | 6.2 ± 0.67 µM | 5.4 ± 0.25 µM |  |  |  |  |  |  |  |  |  | CN(C)C/C=C/C(=O)Nc1cc2c(Nc3ccc(F)c(Cl)c3)ncnc2cc1O[C@H]1CCOC1 [Afatinib, reference compound] |  |  | 
68.8 ± 3.79 µM | 55 to 56 °C | 46.5 ± 2.84 µM | 76.5 ± 4.22 µM | 63.6 ± 3.91 µM |  |  |  |  |  |  |  |  |  | CC(=O)Oc1ccccc1C(=O)SC1CCCCC1 [4b, 2-[(Cyclohexylthio)carbonyl]phenyl acetate] |  |  | 
29.1 ± 2.45 µM | 97 to 98 °C | 17.1 ± 1.4 µM | 34 ± 2.25 µM | 14.9 ± 1.38 µM | 3% | 0.49 ± 0.044 µM | >102.0 | 3% | > 50 µM | 1% | 0% |  |  | COc1ccc2c(c1)c(CC(=O)SC1CCCCC1)c(C)n2C(=O)c1ccc(Cl)cc1 [7b, S-cyclohexyl-2–(1-(4-chlorobenzoyl)-5-methoxy-2-methyl-1H-indol-3-yl)ethanethioate] |  |  | 
76.5 ± 4.38 µM | 85 to 86 °C | 63.6 ± 3.62 µM | 78.1 ± 4.08 µM | 68.8 ± 3.87 µM |  |  |  |  |  |  |  |  |  | CC(C(=O)Sc1ccccc1)c1ccc(-c2ccccc2)c(F)c1 (stereo not drawn) [3a, S-phenyl-2–(2-fluoro-[1,1′-biphenyl]-4-yl)propanethioate] |  |  | 
> 100 µM |  | > 100 µM | 97.6 ± 5.12 µM | > 100 µM |  |  |  |  |  |  |  |  |  | CC(C)Cc1ccc(C(C)C(=O)SC2CCCCC2)cc1 (stereo not drawn) [1b, S-cyclohexyl-2–(4-isobutylphenyl)propanethioate] |  |  | 
6.85 ± 0.34 µM |  | 5.43 ± 0.2 µM | 5.32 ± 0.17 µM | 7.91 ± 0.28 µM |  |  |  |  |  |  |  |  |  | O=c1[nH]cc(F)c(=O)[nH]1 [5-FU, 5-Fluorouracil, reference compound] |  |  | 
43.8 ± 2.96 µM | 121 to 122 °C | 34.1 ± 2.07 µM | 46.7 ± 2.93 µM | 22.3 ± 1.96 µM |  | 0.6 ± 0.055 µM | >83.3 |  | > 50 µM |  |  |  |  | CC1=C(CC(=O)SC2CCCCC2)c2cc(F)ccc2C1=Cc1ccc([S+](C)[O-])cc1 (stereo not drawn) [8b, S-cyclohexyl-2–(5-fluoro-2-methyl-1–(4-(methylsulfinyl)benzylidene)-1H-inden-3-yl)ethanethioate] |  |  | 
10.2 ± 0.92 µM | 101 to 102 °C | 6.11 ± 0.31 µM | 46.9 ± 3.23 µM | 26.8 ± 2.08 µM | 5% | 0.25 ± 0.017 µM | >200.0 | 5% | > 50 µM | 6% | 1% |  |  | O=C(Cc1ccccc1Nc1c(Cl)cccc1Cl)Sc1ccccc1 [6a, S-phenyl-2–(2-((2,6-dichlorophenyl)amino)phenyl)ethanethioate] |  |  | 
21.7 ± 1.9 µM | 69 to 70 °C | 11.9 ± 1.13 µM | 18.7 ± 1.5 µM | 9.36 ± 0.79 µM | 5% | 0.66 ± 0.052 µM | >75.8 | 4% | > 50 µM | 0% | 1% |  |  | CC(C(=O)SC1CCCCC1)c1cccc(C(=O)c2ccccc2)c1 (stereo not drawn) [2b, S-cyclohexyl-2–(3-benzoylphenyl)propanethioate] |  |  | 
72.2 ± 4.06 µM | 96 to 98 °C |  |  | 59.8 ± 3.55 µM |  |  |  |  |  |  |  | 48.1 ± 3.15 µM | 61.3 ± 3.97 µM | CC(C(=O)Sc1ccccc1)c1cccc(C(=O)c2ccccc2)c1 (stereo not drawn) [2a, S-phenyl-2–(3-benzoylphenyl)propanethioate] |  |  | 
 |  |  |  |  |  |  |  |  |  |  |  |  |  | CN[C@@H]1C[C@H]2O[C@@](C)([C@@H]1OC)n1c3ccccc3c3c4c(c5c6ccccc6n2c5c31)C(=O)NC4 [Staurosporine, reference compound] |  |  | 100%
35.6 ± 2.62 µM | 105 to 106 °C | 28.9 ± 1.58 µM | 39.5 ± 2.61 µM | 19.7 ± 1.57 µM |  |  |  |  |  |  |  |  |  | COc1ccc2cc(C(C)C(=O)SC3CCCCC3)ccc2c1 [5b, S-cyclohexyl-(S)-2–(6-methoxynaphthalen-2-yl)propanethioate] |  |  | 
26.8 ± 2.17 µM | 90 to 92 °C | 13.7 ± 1.19 µM | 23.8 ± 1.8 µM | 10.5 ± 0.98 µM | 3% | 0.69 ± 0.057 µM | >72.5 | 3% | > 50 µM | 0% | 0% |  |  | CC(C(=O)SC1CCCCC1)c1ccc(-c2ccccc2)c(F)c1 (stereo not drawn) [3b, S-cyclohexyl-2–(2-fluoro-[1,1′-biphenyl]-4-yl)propanethioate] |  |  | 

SMILES | IC50 [1] | melting point | IC50 [2, 11] | IC50 [3, 12] | IC50 [4] | inhibition at 10 µM [5] | IC50 [6] | SI, selectivity index (COX-1 IC50/COX-2 IC50) [6] | inhibition at 10 µM [7] | IC50 [8] | inhibition at 10 µM [9] | inhibition at 10 µM [10] | IC50 [2, 13] | IC50 ([3]; read-out: IC50 (μM) HCT-116, human colon cancer cell line, MTT, mean ± SD, n = 3) | IC50 ([2]; Homo sapiens, MCF7, read-out: IC50 (μM) MCF-7) | IC50 ([3]; Homo sapiens, HCT-116, read-out: IC50 (μM) HCT-116) | inhibition at 1 µM ([7]; read-out: % inhibition cSrc)
Cc1ccc(-c2cc(C(F)(F)F)nn2-c2ccc(S(N)(=O)=O)cc2)cc1 [Celecoxib, reference compound] | 42.7 ± 3.1 µM |  |  |  | 25.6 ± 2.3 µM |  |  |  |  |  |  |  |  |  | 31.3 ± 2.5 µM | 29.5 ± 2.1 µM | 
